{"source": "paper PMC12084609", "about": "“Structural insights into small-molecule agonist recognition and activation of complement receptor C3aR” (The EMBO Journal, 2025)", "format_in_all_cases": "cell-based", "key": {"C3aR": {"biological_target": "C3aR (Homo sapiens, UniProt Q16581)", "sequence (Q16581 whole entry)": "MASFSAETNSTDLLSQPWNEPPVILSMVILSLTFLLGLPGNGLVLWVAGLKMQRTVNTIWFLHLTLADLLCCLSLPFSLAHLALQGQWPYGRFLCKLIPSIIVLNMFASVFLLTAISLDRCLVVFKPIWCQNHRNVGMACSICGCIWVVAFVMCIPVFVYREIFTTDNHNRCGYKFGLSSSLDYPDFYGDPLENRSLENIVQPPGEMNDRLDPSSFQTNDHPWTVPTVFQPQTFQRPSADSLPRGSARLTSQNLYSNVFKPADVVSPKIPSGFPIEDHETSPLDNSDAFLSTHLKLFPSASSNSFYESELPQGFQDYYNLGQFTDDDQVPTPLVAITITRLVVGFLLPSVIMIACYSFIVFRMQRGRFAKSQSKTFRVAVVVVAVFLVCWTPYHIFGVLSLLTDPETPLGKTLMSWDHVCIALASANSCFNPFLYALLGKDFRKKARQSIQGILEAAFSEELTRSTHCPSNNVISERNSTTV", "sequence (P63096 2-354 partner limits assumed)": "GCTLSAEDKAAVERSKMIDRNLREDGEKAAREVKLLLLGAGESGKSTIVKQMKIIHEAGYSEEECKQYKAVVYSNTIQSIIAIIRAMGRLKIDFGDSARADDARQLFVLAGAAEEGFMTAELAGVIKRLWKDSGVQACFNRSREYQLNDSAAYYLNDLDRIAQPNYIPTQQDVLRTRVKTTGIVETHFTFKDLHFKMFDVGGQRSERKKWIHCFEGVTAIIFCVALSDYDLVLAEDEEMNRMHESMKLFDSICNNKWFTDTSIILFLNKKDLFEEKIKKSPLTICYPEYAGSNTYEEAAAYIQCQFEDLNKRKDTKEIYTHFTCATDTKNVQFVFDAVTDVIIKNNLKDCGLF", "sequence (P62873 2-340 partner limits assumed)": "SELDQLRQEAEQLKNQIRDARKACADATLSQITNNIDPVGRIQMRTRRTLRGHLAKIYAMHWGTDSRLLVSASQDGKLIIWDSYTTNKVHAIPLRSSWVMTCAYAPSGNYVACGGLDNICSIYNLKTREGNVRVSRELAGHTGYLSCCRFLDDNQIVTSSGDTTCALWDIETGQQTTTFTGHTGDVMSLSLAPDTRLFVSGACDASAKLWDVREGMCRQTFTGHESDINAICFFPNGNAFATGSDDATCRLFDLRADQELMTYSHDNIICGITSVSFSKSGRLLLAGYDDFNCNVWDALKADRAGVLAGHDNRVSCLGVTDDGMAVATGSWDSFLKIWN", "sequence (P59768 2-68 partner limits assumed)": "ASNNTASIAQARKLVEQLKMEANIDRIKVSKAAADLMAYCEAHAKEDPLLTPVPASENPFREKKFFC", "assay": "Gi recruitment BRET assay (C3aR-eYFP / Gαi-Rluc8, HEK293T)", "conditions": "for ΔBRET (ligand-vehicle): individual replicates", "method": "HEK293T cells were seeded on 6-well plates (NEST) and transfected with pcDNA3.1 plasmids encoding C3aR-eYFP, Gαi-Rluc8, Gβ1, and Gγ2 with a ratio of 5:1:1:1. After 48 h, cells were harvested and resuspended with in PBS. Cells were treated with test ligand with various concentrations and seeded on 96-well white bottom plates (SPL). After 3 min incubation at 37 °C, coelenterazine h (Nanolight) was added with a final concentration of 10 μM. Luminescence and fluorescence were measured using a Tristar 2 LB 942 multimode reader (Berthold)."}, "C3aR P99^3.29A": {"biological_target": "T1, C3aR P99^3.29A (Homo sapiens, UniProt Q16581, P99A)", "T1 construct": "expressed in transfected cells; host or cells: HEK293T", "T1 sequence (Q16581 1-482 P99A)": "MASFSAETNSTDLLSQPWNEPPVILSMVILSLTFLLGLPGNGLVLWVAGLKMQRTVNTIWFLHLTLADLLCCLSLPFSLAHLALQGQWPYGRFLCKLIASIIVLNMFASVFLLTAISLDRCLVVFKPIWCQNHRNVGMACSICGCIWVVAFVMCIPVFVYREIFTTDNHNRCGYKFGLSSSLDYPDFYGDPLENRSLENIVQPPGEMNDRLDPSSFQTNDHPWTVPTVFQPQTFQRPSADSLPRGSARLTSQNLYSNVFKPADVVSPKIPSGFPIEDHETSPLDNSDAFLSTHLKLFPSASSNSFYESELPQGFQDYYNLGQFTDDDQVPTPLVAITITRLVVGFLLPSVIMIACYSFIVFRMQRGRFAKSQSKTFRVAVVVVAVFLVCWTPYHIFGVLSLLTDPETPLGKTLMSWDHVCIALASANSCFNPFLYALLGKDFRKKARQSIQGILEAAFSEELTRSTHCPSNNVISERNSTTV", "assay": "GloSensor-based cAMP assay, C3aR mutant P99A", "method": "(§1) HEK293T cells were seeded on 6-well plates (NEST) and transfected with pGlosensor™-22F plasmids (Promega) and pcDNA3.1 plasmids encoding C3aR or its mutants an with N-terminal FLAG tag. After 48 h, cells were detached with Accutase solution (Sigma-Aldrich) and washed with PBS, and resuspended in assay buffer (CO2-independent medium with 0.5 mg mL^−1D-luciferin). 100,000–200,000 cells were seeded on 96-well white bottom plates (SPL) and incubated at 37 °C for 45 min followed by 45 min incubation at room temperature. After 90 min of incubation, basal luminescence signals were recorded. In total, 25 μl of test ligand with various concentrations and 1 μM Forskolin (Sigma-Aldrich) were treated to the cells and luminescence signals were measured by Tristar 2 LB 942 multimode reader (Berthold). […] Relative luminescence unit (%) was calculated with the signal of wells treated with vehicle as 0% and the signal of wells treated with 1 μM Forskolin as 100% (DiRaddo et al, [2014]). Nonlinear regression was performed using a three-parameter logistic equation."}, "C3aR M106^3.36A": {"biological_target": "T2, C3aR M106^3.36A (Homo sapiens, UniProt Q16581, M106A)", "T2 construct": "expressed in transfected cells; host or cells: HEK293T", "T2 sequence (Q16581 1-482 M106A)": "T1 sequence (Q16581 1-482 P99A) with A99P, M106A", "assay": "GloSensor-based cAMP assay, C3aR mutant M106A", "method": "as §1"}, "C3aR I421^7.39A": {"biological_target": "T3, C3aR I421^7.39A (Homo sapiens, UniProt Q16581, I421A)", "T3 construct": "expressed in transfected cells; host or cells: HEK293T", "T3 sequence (Q16581 1-482 I421A)": "T1 sequence (Q16581 1-482 P99A) with A99P, I421A", "assay": "GloSensor-based cAMP assay, C3aR mutant I421A", "method": "as §1"}, "[1]": {"conditions": "Dunnett's multiple comparisons test, WT minus mutant"}}, "note": "Substitutions are numbered along the chain they refer to. Several values for one entry are separate records, joined by “and”; a condition that tells them apart may be missing. Equal values may be shown once. Read-outs that look alike come from different tables or passages of the source.", "data": [{"smiles": "Cc1cc(C(c2ccc(Cl)cc2)c2ccc(Cl)cc2)sc1C(=O)N[C@@H](CCCNC(=N)N)C(=O)O", "note": "[JR14a, reference compound]", "values": [{"measurement": "ΔBRET (ligand-vehicle)", "setting": "C3aR; Log[ligand (M)] -6", "value": "0.012 and 0.008 and 0.015 and 0.018"}, {"measurement": "ΔBRET (ligand-vehicle)", "setting": "C3aR; Log[ligand (M)] -7", "value": "0.005 and 0.015 and 0.017"}, {"measurement": "ΔBRET (ligand-vehicle)", "setting": "C3aR; Log[ligand (M)] -8", "value": "0.004 and 0.00244 and 0.012 and 0.018"}, {"measurement": "ΔBRET (ligand-vehicle)", "setting": "C3aR; Log[ligand (M)] -9", "value": "0.002 and -0.000881 and 0.00951 and 0.012"}, {"measurement": "ΔBRET (ligand-vehicle)", "setting": "C3aR; Log[ligand (M)] -10", "value": "0.00084 and -0.0022 and 0.006 and 0.009"}, {"measurement": "ΔBRET (ligand-vehicle)", "setting": "C3aR; Log[ligand (M)] -11", "value": "0.001 and -0.004 and 0.005 and 0.010"}, {"measurement": "ΔBRET (ligand-vehicle)", "setting": "C3aR; Log[ligand (M)] -12", "value": "-6.28e-5 and 0.00465 and 0.004"}, {"measurement": "EC50", "setting": "C3aR; dose-dependent increase in BRET ratio, read-out: EC50", "value": 5, "unit": "nM"}, {"measurement": "EC50", "setting": "C3aR; pEC50 ± SEM, Gi recruitment to C3aR, Appendix Table S1A", "value": 4.57, "unit": "nM"}, {"measurement": "Span Value", "setting": "C3aR; span of ΔBRET curve, Figure EV1A numerical data", "value": 0.010}, {"measurement": "Mean Diff. of pIC50, WT vs. P99A", "setting": "C3aR P99^3.29A; [1]", "value": -0.103}, {"measurement": "IC50", "setting": "C3aR P99^3.29A; IC50, P99^3.29A, dose-response plot", "value": 4.08, "unit": "nM"}, {"measurement": "remaining activity at 1 µM", "setting": "C3aR P99^3.29A; P99A, Log[JR14a (M)] -6, single replicates, read-out: cAMP response (% Forskolin)", "value": 8.38, "unit": "%"}, {"measurement": "remaining activity at 0.1 µM", "setting": "C3aR P99^3.29A; P99A, Log[JR14a (M)] -7, single replicates, read-out: cAMP response (% Forskolin)", "value": 9.9, "unit": "%"}, {"measurement": "remaining activity at 0.001 µM", "setting": "C3aR P99^3.29A; P99A, Log[JR14a (M)] -9, single replicates, read-out: cAMP response (% Forskolin)", "value": 77.4, "unit": "%"}, {"measurement": "remaining activity at 0.0001 µM", "setting": "C3aR P99^3.29A; P99A, Log[JR14a (M)] -10, single replicates, read-out: cAMP response (% Forskolin)", "value": 102, "unit": "%"}, {"measurement": "remaining activity at 10 pM", "setting": "C3aR P99^3.29A; P99A, Log[JR14a (M)] -11, single replicates, read-out: cAMP response (% Forskolin)", "value": 104, "unit": "%"}, {"measurement": "ΔpIC50 ± SE of Diff.", "setting": "C3aR P99^3.29A; P99^3.29A relative to WT C3aR", "value": "0.10 ± 0.06"}, {"measurement": "decrease in IC50 values vs WT", "setting": "C3aR P99^3.29A; P99^3.29 to Ala, relatively mild effect on downstream signaling", "value": "< 10", "unit": "fold"}, {"measurement": "IC50", "setting": "C3aR P99^3.29A; pIC50 (Replicate), P99^3.29A, individual replicates", "value": "4.9 nM and 5.25 nM and 2.69 nM"}, {"measurement": "Mean Diff. of pIC50, WT vs. M106A", "setting": "C3aR M106^3.36A; [1]", "value": -0.207}, {"measurement": "IC50", "setting": "C3aR M106^3.36A; IC50, M106^3.36A, dose-response plot", "value": 3.24, "unit": "nM"}, {"measurement": "ΔpIC50 ± SE of Diff.", "setting": "C3aR M106^3.36A; M106^3.36A relative to WT C3aR", "value": "0.21 ± 0.09"}, {"measurement": "IC50", "setting": "C3aR M106^3.36A; pIC50 (Replicate), M106^3.36A, individual replicates", "value": "3.63 nM and 7.41 nM and 1.29 nM"}, {"measurement": "Mean Diff. of pIC50, WT vs. I421A", "setting": "C3aR I421^7.39A; [1]", "value": 1.797}, {"measurement": "remaining activity at 0.01 µM", "setting": "C3aR I421^7.39A; I421A, Log[JR14a (M)] -8, single replicates, read-out: cAMP response (% Forskolin)", "value": 91.4, "unit": "%"}, {"measurement": "remaining activity at 0.001 µM", "setting": "C3aR I421^7.39A; I421A, Log[JR14a (M)] -9, single replicates, read-out: cAMP response (% Forskolin)", "value": 92.7, "unit": "%"}, {"measurement": "remaining activity at 0.0001 µM", "setting": "C3aR I421^7.39A; I421A, Log[JR14a (M)] -10, single replicates, read-out: cAMP response (% Forskolin)", "value": 96.4, "unit": "%"}, {"measurement": "remaining activity at 10 pM", "setting": "C3aR I421^7.39A; I421A, Log[JR14a (M)] -11, single replicates, read-out: cAMP response (% Forskolin)", "value": 93.5, "unit": "%"}, {"measurement": "reduction in ligand-induced signaling vs WT", "setting": "C3aR I421^7.39A; I421^7.39A mutant", "value": 60, "unit": "fold"}, {"measurement": "ΔpIC50 ± SE of Diff.", "setting": "C3aR I421^7.39A; I421^7.39A relative to WT C3aR", "value": "-1.80 ± 0.06"}, {"measurement": "IC50", "setting": "C3aR I421^7.39A; IC50, I421^7.39A, dose-response plot", "value": 204, "unit": "nM"}, {"measurement": "IC50", "setting": "C3aR I421^7.39A; pIC50 (Replicate), I421^7.39A, individual replicates", "value": "229 nM and 263 nM and 331 nM and 115 nM"}, {"measurement": "IC50", "setting": "C3aR I421^7.39A; pIC50 ± SEM (Mean), I421^7.39A, mean of independent experiments", "value": 219, "unit": "nM"}]}]}
